The values that follow come from ChEMBL document CHEMBL4017466, “Efficient synthesis of a multi-substituted diphenylmethane skeleton as a steroid mimetic” (Bioorg Med Chem Lett, 2017).

The source made the active and inactive calls. The calls are words filed in the database; no cut-off is given here.

The target in the first test is T1, Estrogen receptor (Homo sapiens) (UniProt P03372).
T1 sequence (whole entry): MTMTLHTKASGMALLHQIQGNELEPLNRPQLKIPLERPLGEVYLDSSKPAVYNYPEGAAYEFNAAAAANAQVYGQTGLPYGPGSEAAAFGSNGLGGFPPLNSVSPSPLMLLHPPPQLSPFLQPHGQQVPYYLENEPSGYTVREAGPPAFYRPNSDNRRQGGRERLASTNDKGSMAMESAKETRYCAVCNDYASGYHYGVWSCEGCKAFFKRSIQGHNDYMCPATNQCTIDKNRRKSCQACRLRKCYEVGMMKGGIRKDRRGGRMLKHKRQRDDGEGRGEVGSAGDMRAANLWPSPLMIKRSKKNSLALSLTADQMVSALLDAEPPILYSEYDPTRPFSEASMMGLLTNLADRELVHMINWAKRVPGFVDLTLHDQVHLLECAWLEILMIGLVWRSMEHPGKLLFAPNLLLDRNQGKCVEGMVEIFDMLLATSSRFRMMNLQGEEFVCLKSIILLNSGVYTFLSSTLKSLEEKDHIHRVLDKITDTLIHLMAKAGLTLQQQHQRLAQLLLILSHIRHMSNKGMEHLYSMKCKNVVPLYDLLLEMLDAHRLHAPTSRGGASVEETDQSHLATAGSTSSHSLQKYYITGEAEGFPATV
Kind of test: Antagonist activity at CMX-GAL4N fused human ERalpha expressed in HEK293 cells assessed as reduction in E2 induced response at 10 to 10^4 nM by luciferase reporter gene assay. The format is cell-based. A general note: In a reporter assay the amount or activity of a reporter protein is the signal.
On to `CCCC(CCC)(c1ccc(O)c(C)c1)c1ccc(OC(C)=O)c(OC(C)=O)c1`, for which the result was Active.

The target in the next test is T2, Estrogen receptor (Homo sapiens, UniProt P03372).
T2 sequence (P03372 whole entry): T1 sequence (whole entry)
Nature of the test: Antagonist activity at CMX-GAL4N fused human ERalpha expressed in HEK293 cells assessed as reduction in E2 induced response by luciferase reporter gene assay. Type of test: cell-based.
A word on the IC50: it is the point on the concentration scale where inhibition reaches its midpoint. Take `CCCC(CCC)(c1ccc(O)c(C)c1)c1ccc(O)c(C)c1`: the IC50 came to 2.22 nM. On the same count and under the same terms, the figure for `CCC(CC)(c1ccc(O)c(C)c1)c1ccc(O)c(O)c1` is 664 nM. Turning to `CCCC(CCC)(c1ccc(O)c(C)c1)c1ccc(OCCN(C)C)c(C)c1`, the IC50 came to 134 nM. Still for that read-out and setting: the figure for `CCCC(CCC)(c1ccc(O)cc1)c1ccc(O)c(O)c1` is 63.2 nM; for `CCCC(CCC)(c1ccc(O)c(C)c1)c1cc(C)c(O)c(O)c1` it is 271 nM.

As to `CCCC(CCC)(c1ccc(OCCN(C)C)c(C)c1)c1ccc(O)c(O)c1`, the IC50 worked out at 225 nM.

Consider `CCCC(CCC)(c1ccc(O)c(C)c1)c1ccc(O)c(O)c1`, for which the IC50 was determined as 158 nM. With `CCC(CC)(c1ccc(O)cc1)c1ccc(O)c(O)c1`, the IC50 is 154 nM.
